The data set in a line: Solubility in organic solvents. The class given is physicochemical. The note with it: for solubility in acetone: solvent acetone; for solubility in ethanol: solvent ethanol; for solubility in ethyl acetate: solvent ethyl acetate; for solubility in isobutyl acetate: solvent isobutyl acetate. From the text: Curcumin is a bright red product once purified and maintains the vanilla fragrance due to the presence of methoxy groups from the starting product vanillin. It is soluble in acetone, ethyl acetate, ethanol, and isobutyl acetate. The solubility of bisdemethoxycurcumin, however, is slightly different. It is very soluble in ethanol and isobutyl acetate but acetone and ethyl acetate solubility is limited. Bisdemethoxycurcumin maintains a pumpkin-orange appearance and is more crystalline in nature than curcumin.

As for `COc1cc(/C=C/C(=O)CC(=O)/C=C/c2ccc(O)c(OC)c2)ccc1O` [Curcumin, 1,7-bis(4-hydroxy-3-methoxyphenyl)-1,6-heptadiene-3,5-dione], the solubility in acetone entry was “soluble”, the solubility in ethanol result is “soluble”, the “solubility in ethyl acetate” value is reported as “soluble” and the “solubility in isobutyl acetate” value is given as “soluble”.
As to `O=C(/C=C(O)/C=C/c1ccc(O)cc1)/C=C/c1ccc(O)cc1` [bisdemethoxycurcumin, 1,7-bis-(4-hydroxyphenyl)-1,6-heptadiene-3,5-dione], the solubility in acetone entry is recorded as “limited”, the solubility in ethanol entry is reported as “very soluble”, the “solubility in ethyl acetate” value is “limited” and the “solubility in isobutyl acetate” value is on record as “very soluble”.

Values taken from patent US7507864B2, “Method for the synthesis of curcumin analogues” (Salisbury University, priority 2006, dated 2009).
